Experimental data from patent US11419869B2, “Dosage forms and regimens for amino acid compounds” (Pliant Therapeutics, Inc., priority 2019, dated 2022).

biological target: recombinant human integrin αvβ6 (Homo sapiens (Human), UniProt P06756+P18564); test: Solid Phase Integrin αvβ6 Binding Assay (Examples B1, B2); details: TGFβ1 LAP ligand, values given in four ranges, read-out: αvβ6 Inhibition IC50 (nM)-range
Method: (§1) Microplates were coated with recombinant human integrin αvβ6 (2 μg/mL) in PBS (100 μL/well 25° C., overnight). The coating solution was removed, washed with wash buffer (0.05% Tween 20; 0.5 mM MnCl2; in 1×TBS). The plate was blocked with 200 μL/well of Block Buffer (1% BSA; 5% sucrose; 0.5 mM MnCl2; in 1×TBS) at 37° C. for 2 h. Dilutions of testing compounds and recombinant TGFβ1 LAP (0.67 μg/mL) in binding buffer (0.05% BSA; 2.5% sucrose; 0.5 mM MnCl2; in 1×TBS) were added. The plate was incubated for 2 hours at 25° C., washed, and incubated for 1 hour with Biotin-Anti-hLAP. Bound antibody was detected by peroxidase-conjugated streptavidin. The IC50 values for testing compounds were calculated by four-parameter logistic regression.
The compounds tested were compound samples prepared according to procedures described in the Synthetic Examples section, with the stereochemical purity as indicated in the Examples.
as §1, with “A third series of exemplary compounds was selected for testing in the solid phase integrin αvβ6 binding assay. The compounds tested were compound samples prepared according to procedures described in the Synthetic Examples section, with the stereochemical purity as indicated in the Examples. As in Example B1, microplates were coated” for “Microplates were coated”, “calculated by a four-parameter logistic” for “calculated by four-parameter logistic”

Chain of recombinant human integrin αvβ6 (P06756 31-992): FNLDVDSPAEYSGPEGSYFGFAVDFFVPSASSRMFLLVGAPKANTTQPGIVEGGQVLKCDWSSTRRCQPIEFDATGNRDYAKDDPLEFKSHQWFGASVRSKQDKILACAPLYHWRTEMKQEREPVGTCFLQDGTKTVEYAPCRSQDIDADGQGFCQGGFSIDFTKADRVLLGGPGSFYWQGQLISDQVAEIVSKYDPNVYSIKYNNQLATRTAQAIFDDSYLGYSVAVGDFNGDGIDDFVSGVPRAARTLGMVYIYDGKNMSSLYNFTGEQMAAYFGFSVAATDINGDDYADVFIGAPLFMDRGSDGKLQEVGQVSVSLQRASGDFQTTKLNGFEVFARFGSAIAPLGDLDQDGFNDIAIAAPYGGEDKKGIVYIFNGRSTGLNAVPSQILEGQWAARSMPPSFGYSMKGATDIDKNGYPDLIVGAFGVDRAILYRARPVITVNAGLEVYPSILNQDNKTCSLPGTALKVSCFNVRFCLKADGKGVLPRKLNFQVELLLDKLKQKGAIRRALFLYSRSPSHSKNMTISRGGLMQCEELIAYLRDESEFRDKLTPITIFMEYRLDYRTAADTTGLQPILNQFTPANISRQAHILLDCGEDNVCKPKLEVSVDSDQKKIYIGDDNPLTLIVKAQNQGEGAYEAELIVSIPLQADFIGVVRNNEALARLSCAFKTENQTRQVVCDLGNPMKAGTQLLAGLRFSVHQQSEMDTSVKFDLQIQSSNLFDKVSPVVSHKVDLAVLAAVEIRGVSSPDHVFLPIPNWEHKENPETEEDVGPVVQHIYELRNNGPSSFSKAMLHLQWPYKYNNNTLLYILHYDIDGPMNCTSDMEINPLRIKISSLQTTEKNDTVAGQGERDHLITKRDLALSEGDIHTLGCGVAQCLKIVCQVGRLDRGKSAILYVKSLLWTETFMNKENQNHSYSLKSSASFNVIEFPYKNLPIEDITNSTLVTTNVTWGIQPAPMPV
Chain of recombinant human integrin αvβ6 (P18564 22-707): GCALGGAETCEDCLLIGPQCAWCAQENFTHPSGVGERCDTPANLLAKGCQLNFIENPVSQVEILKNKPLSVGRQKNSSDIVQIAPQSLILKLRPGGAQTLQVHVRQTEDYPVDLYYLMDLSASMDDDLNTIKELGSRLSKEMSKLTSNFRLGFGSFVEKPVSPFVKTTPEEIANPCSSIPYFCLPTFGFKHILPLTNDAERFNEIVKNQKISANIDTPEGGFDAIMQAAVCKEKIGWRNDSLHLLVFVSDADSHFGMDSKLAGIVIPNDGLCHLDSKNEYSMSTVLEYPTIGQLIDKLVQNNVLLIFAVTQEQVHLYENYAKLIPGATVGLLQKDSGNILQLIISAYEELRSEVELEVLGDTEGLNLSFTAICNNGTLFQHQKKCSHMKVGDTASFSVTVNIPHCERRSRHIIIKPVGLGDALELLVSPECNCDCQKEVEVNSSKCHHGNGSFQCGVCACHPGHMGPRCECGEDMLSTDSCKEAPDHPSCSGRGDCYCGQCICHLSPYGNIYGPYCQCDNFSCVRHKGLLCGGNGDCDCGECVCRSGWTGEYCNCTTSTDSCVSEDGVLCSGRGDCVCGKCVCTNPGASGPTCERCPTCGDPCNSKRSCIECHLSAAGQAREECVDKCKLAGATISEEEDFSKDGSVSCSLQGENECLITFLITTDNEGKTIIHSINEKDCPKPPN

| Structure (SMILES) | IC50 [nM] |
| --- | --- |
| Cc1ccc(OCCN(CCCCc2ccc3c(n2)NCCC3)CC[C@H](Nc2ncnc3ccccc23)C(=O)O)cn1 [Compound 59, (S)-4-((2-((6-methylpyridin-3-yl)oxy)ethyl) (4-(5,6,7,8-tetrahydro-1,8-naphthyridin-2-yl)butyl)amino)-2-(quinazolin-4-ylamino) butanoic acid] | < 50 |
| O=C(O)[C@H](CCN(CCCCc1ccc2c(n1)NCCC2)CCOc1cncc(F)c1)Nc1ncnc2cccnc12 [Compound 60, (S)-4-((2-((5-fluoropyridin-3-yl)oxy)ethyl) (4-(5,6,7,8-tetrahydro-1,8-naphthyridin-2-yl)butyl)amino)-2-(pyrido[3,2-d]pyrimidin-4-ylamino) butanoic acid] | < 50 |
| CC(=O)NCCN(CCCCc1ccc2c(n1)NCCC2)CC[C@H](Nc1ncnc2ccccc12)C(=O)O [Compound 63, (S)-4-((2-acetamidoethyl) (4-(5,6,7,8-tetrahydro-1,8-naphthyridin-2-yl)butyl)amino)-2-(quinazolin-4-ylamino) butanoic acid] | < 50 |
| CO[C@H](C)CN(CCCCc1ccc2c(n1)NCCC2)CC[C@H](Nc1nc(C)nc2cc(F)ccc12)C(=O)O [Compound 65, (S)-2-((7-fluoro-2-methylquinazolin-4-yl)amino)-4-(((R)-2-methoxypropyl) (4-(5,6,7,8-tetrahydro-1,8-naphthyridin-2-yl)butyl)amino) butanoic acid] | < 50 |
| CO[C@H](C)CN(CCCCc1ccc2c(n1)NCCC2)CC[C@H](Nc1ncc(C#N)cn1)C(=O)O [Compound 68, (S)-2-((5-cyanopyrimidin-2-yl)amino)-4-(((R)-2-methoxypropyl) (4-(5,6,7,8-tetrahydro-1,8-naphthyridin-2-yl)butyl)amino) butanoic acid] | < 50 |

Other lines, results leading:

| IC50 [nM] | Structure (SMILES) |
| --- | --- |
| < 50 | Cc1nc(N[C@@H](CCN(CCCCc2ccc3c(n2)NCCC3)CCOc2cncc(F)c2)C(=O)O)c2ccc(F)cc2n1 [Compound 61, (S)-2-((7-fluoro-2-methylquinazolin-4-yl)amino)-4-((2-((5-fluoropyridin-3-yl)oxy)ethyl) (4-(5,6,7,8-tetrahydro-1,8-naphthyridin-2-yl)butyl)amino) butanoic acid] |
| < 50 | CO[C@H](C)CN(CCCCc1ccc2c(n1)NCCC2)CC[C@H](Nc1ncnc2ccccc12)C(=O)O [Compound 62, (S)-4-(((R)-2-methoxypropyl) (4-(5,6,7,8-tetrahydro-1,8-naphthyridin-2-yl)butyl)amino)-2-(quinazolin-4-ylamino) butanoic acid] |
| < 50 | CN(C)C(=O)CN(CCCCc1ccc2c(n1)NCCC2)CC[C@H](Nc1ncnc2ccccc12)C(=O)O [Compound 64, (S)-4-((2-(dimethylamino)-2-oxoethyl) (4-(5,6,7,8-tetrahydro-1,8-naphthyridin-2-yl)butyl)amino)-2-(quinazolin-4-ylamino) butanoic acid] |
| < 50 | CO[C@H](C)CN(CCCCc1ccc2c(n1)NCCC2)CC[C@H](Nc1nc(C)nc2ccccc12)C(=O)O [Compound 66, (S)-4-(((R)-2-methoxypropyl) (4-(5,6,7,8-tetrahydro-1,8-naphthyridin-2-yl)butyl)amino)-2-((2-methylquinazolin-4-yl)amino) butanoic acid] |
| < 50 | COCCN(CCCCc1ccc2c(n1)NCCC2)CC[C@H](Nc1nccnc1C#N)C(=O)O [Compound 67, (S)-2-((3-cyanopyrazin-2-yl)amino)-4-((2-methoxyethyl) (4-(5,6,7,8-tetrahydro-1,8-naphthyridin-2-yl)butyl)amino) butanoic acid] |
| < 50 | CO[C@H](C)CN(CCCCc1ccc2c(n1)NCCC2)CC[C@H](Nc1ncc(C(F)(F)F)cn1)C(=O)O [Compound 69, (S)-4-(((R)-2-methoxypropyl) (4-(5,6,7,8-tetrahydro-1,8-naphthyridin-2-yl)butyl)amino)-2-((5-(trifluoromethyl)pyrimidin-2-yl)amino) butanoic acid] |
